Measurements taken from ChEMBL document CHEMBL1201862, “PubChem BioAssay data set” (2004).
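Method: 48-hour compound exposure of cells in 96-well plates, five concentrations, linear interpolation of endpoints. GI50 is the concentration that inhibits growth by half.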 Calls of active or inactive are those of the source. No stated cut-off is given here; in the data, active = GI50 up to about 1.1 µM and inactive = higher.

Legend:
Experiment in all cases: NCI anticancer screen, dose series, 48 h
ACHN = system: ACHN
DMS-114 = system: DMS-114
DMS-273 = system: DMS-273
HCT-116 = system: HCT-116
IGROV-1 = system: IGROV-1
KM-20L2 = system: KM-20L2
LOX IMVI = system: LOX IMVI
M14 = system: M14
MOLT-4 = system: MOLT-4
Malme-3M = system: Malme-3M
RPMI-8226 = system: RPMI-8226
SK-MEL-28 = system: SK-MEL-28
SNB-19 = system: SNB-19
SW-620 = system: SW-620
UACC-62 = system: UACC-62
UO-31 = system: UO-31
NCI-H226 = system: NCI-H226
NCI-H522 = system: NCI-H522
SF-268 = system: SF-268
HCC 2998 = system: HCC 2998

Compound	GI50 (ACHN)	GI50 (DMS-114)	GI50 (DMS-273)	GI50 (HCT-116)	GI50 (IGROV-1)	GI50 (KM-20L2)	GI50 (LOX IMVI)	GI50 (M14)	GI50 (MOLT-4)	GI50 (Malme-3M)	GI50 (RPMI-8226)	GI50 (SK-MEL-28)	GI50 (SNB-19)	GI50 (SW-620)	GI50 (UACC-62)	GI50 (UO-31)	GI50 (NCI-H226)	GI50 (NCI-H522)	GI50 (SF-268)	GI50 (HCC 2998)
COc1ccc(C2C(C(=O)O)=C(CO)Oc3cc4c(cc32)OCO4)cc1 (stereo not drawn)	> 100 µM (inactive)	> 100 µM (inactive)	> 100 µM (inactive)	> 100 µM (inactive)	> 100 µM (inactive)	> 100 µM (inactive)	> 100 µM (inactive)	> 100 µM (inactive)	> 10 µM (inactive)	> 100 µM (inactive)	> 100 µM (inactive)	> 100 µM (inactive)	> 100 µM (inactive)	> 100 µM (inactive)	> 100 µM (inactive)	> 100 µM (inactive)	–	–	–	–
C#CCOc1c(C(=O)OCC)c(=O)n(C)c2ccccc12	> 100 µM (inactive)	> 100 µM (inactive)	–	–	> 100 µM (inactive)	> 100 µM (inactive)	> 100 µM (inactive)	> 100 µM (inactive)	> 100 µM (inactive)	> 100 µM (inactive)	> 100 µM (inactive)	> 100 µM (inactive)	> 100 µM (inactive)	> 100 µM (inactive)	> 100 µM (inactive)	> 100 µM (inactive)	> 100 µM (inactive)	> 100 µM (inactive)	> 100 µM (inactive)	–
O=C(N/C(=C\c1cccc([N+](=O)[O-])c1)c1nc2c(O)nc(S)nc2[nH]1)c1ccccc1	> 100 µM (inactive)	88.9 µM (inactive)	–	> 100 µM (inactive)	> 100 µM (inactive)	> 100 µM (inactive)	> 100 µM (inactive)	> 100 µM (inactive)	94.4 µM (inactive)	> 100 µM (inactive)	97.1 µM (inactive)	> 100 µM (inactive)	> 100 µM (inactive)	> 100 µM (inactive)	> 100 µM (inactive)	24.5 µM (inactive)	> 100 µM (inactive)	66.8 µM (inactive)	48.2 µM (inactive)	> 100 µM (inactive)
CN(C)CCNC(=O)Cn1ccc(=O)c2ccc([N+](=O)[O-])cc21	> 100 µM (inactive)	–	–	> 100 µM (inactive)	> 100 µM (inactive)	–	> 100 µM (inactive)	> 100 µM (inactive)	> 100 µM (inactive)	44.7 µM (inactive)	> 100 µM (inactive)	> 100 µM (inactive)	> 100 µM (inactive)	> 100 µM (inactive)	> 100 µM (inactive)	> 100 µM (inactive)	> 100 µM (inactive)	> 100 µM (inactive)	> 100 µM (inactive)	> 100 µM (inactive)
Cn1nc(N)nc1N=S(C)(C)=N	> 100 µM (inactive)	> 100 µM (inactive)	> 100 µM (inactive)	–	> 100 µM (inactive)	> 100 µM (inactive)	–	> 100 µM (inactive)	> 100 µM (inactive)	> 100 µM (inactive)	> 100 µM (inactive)	> 100 µM (inactive)	> 100 µM (inactive)	> 100 µM (inactive)	> 100 µM (inactive)	88.9 µM (inactive)	72.4 µM (inactive)	83.9 µM (inactive)	> 100 µM (inactive)	> 100 µM (inactive)
NC(CCOCCP(=O)(O)O)C(=O)O (stereo not drawn)	> 100 µM (inactive)	–	–	> 100 µM (inactive)	> 100 µM (inactive)	–	> 100 µM (inactive)	> 100 µM (inactive)	> 100 µM (inactive)	–	> 100 µM (inactive)	> 100 µM (inactive)	> 100 µM (inactive)	> 100 µM (inactive)	56.5 µM (inactive)	> 100 µM (inactive)	–	> 100 µM (inactive)	> 100 µM (inactive)	> 100 µM (inactive)
CC(SC1=CC(=O)c2c(Cl)ccc(O)c2C1=O)C(=O)O (stereo not drawn)	–	18.2 µM (inactive)	18.1 µM (inactive)	17.8 µM (inactive)	17.3 µM (inactive)	74.6 µM (inactive)	10.1 µM (inactive)	–	18.5 µM (inactive)	19.7 µM (inactive)	19.8 µM (inactive)	18.5 µM (inactive)	–	19.4 µM (inactive)	–	–	43.3 µM (inactive)	–	20.2 µM (inactive)	21.3 µM (inactive)
CCCOc1nc(N)c2cnn(C3CCCCO3)c2n1 (stereo not drawn)	> 100 µM (inactive)	> 100 µM (inactive)	> 100 µM (inactive)	> 100 µM (inactive)	> 100 µM (inactive)	> 100 µM (inactive)	–	> 100 µM (inactive)	> 100 µM (inactive)	> 100 µM (inactive)	> 100 µM (inactive)	> 100 µM (inactive)	> 100 µM (inactive)	> 100 µM (inactive)	> 100 µM (inactive)	> 100 µM (inactive)	> 100 µM (inactive)	> 100 µM (inactive)	> 100 µM (inactive)	> 100 µM (inactive)
Cc1n[nH]c(N)c1C(N)=O	> 100 µM (inactive)	> 100 µM (inactive)	> 100 µM (inactive)	–	> 100 µM (inactive)	> 100 µM (inactive)	> 100 µM (inactive)	> 100 µM (inactive)	> 100 µM (inactive)	> 100 µM (inactive)	> 100 µM (inactive)	> 100 µM (inactive)	> 100 µM (inactive)	> 100 µM (inactive)	> 100 µM (inactive)	> 100 µM (inactive)	–	> 100 µM (inactive)	> 100 µM (inactive)	> 100 µM (inactive)
S=C(S)NCC1CCC(CNC(=S)S)CC1 (stereo not drawn)	20.7 µM (inactive)	–	–	19.7 µM (inactive)	18.3 µM (inactive)	–	18.8 µM (inactive)	82.8 µM (inactive)	29.2 µM (inactive)	22.8 µM (inactive)	9.18 µM (inactive)	56.2 µM (inactive)	> 100 µM (inactive)	47.5 µM (inactive)	34.4 µM (inactive)	30.9 µM (inactive)	–	12.7 µM (inactive)	39.2 µM (inactive)	20.4 µM (inactive)
CCOC(=O)/C(=C\NC#N)c1nc2ccccc2[nH]1	30.2 µM (inactive)	–	–	> 100 µM (inactive)	58.9 µM (inactive)	–	> 100 µM (inactive)	> 100 µM (inactive)	5.75 µM (inactive)	> 100 µM (inactive)	78.5 µM (inactive)	> 100 µM (inactive)	> 100 µM (inactive)	> 100 µM (inactive)	85.1 µM (inactive)	1.28 µM (inactive)	–	68.5 µM (inactive)	72.9 µM (inactive)	> 100 µM (inactive)
O=C1NC(=O)C2(CCc3ccc(N(CCCl)CCCl)cc32)N1 (stereo not drawn)	–	10.9 µM (inactive)	2.94 µM (inactive)	14.1 µM (inactive)	15.9 µM (inactive)	19.5 µM (inactive)	8.99 µM (inactive)	–	0.931 µM (active)	–	19.7 µM (inactive)	17.5 µM (inactive)	3.37 µM (inactive)	18.2 µM (inactive)	4.33 µM (inactive)	11 µM (inactive)	2.08 µM (inactive)	5.26 µM (inactive)	7.36 µM (inactive)	15.9 µM (inactive)
O=S(=O)(O)c1ccc(-c2c3nc(c(-c4ccc(S(=O)(=O)O)cc4)c4ccc([nH]4)c(-c4ccc(S(=O)(=O)O)cc4)c4nc(c(-c5ccc(S(=O)(=O)O)cc5)c5ccc2[nH]5)C=C4)C=C3)cc1	45.7 µM (inactive)	–	–	> 100 µM (inactive)	53.3 µM (inactive)	–	37.8 µM (inactive)	> 100 µM (inactive)	3.1 µM (inactive)	32.5 µM (inactive)	52.8 µM (inactive)	24.1 µM (inactive)	65.9 µM (inactive)	97.5 µM (inactive)	> 100 µM (inactive)	37.4 µM (inactive)	32.7 µM (inactive)	47.3 µM (inactive)	> 100 µM (inactive)	–
CC1C(O)[C@@]2(OC[C@@]34C(=O)CC5(O)[C@H](CCC6Cc7nc8c(nc7C[C@]65C)CC5CC[C@@H]6C7=C[C@H]9O[C@@]%10(O[C@@](C)(CO)C[C@@H]%10O)C(C)[C@@]9(O)[C@]7(C)[C@@H](O)CC6[C@]5(C)C8)C3=CC[C@H]4C2C)OC1(C)C (stereo partly drawn)	–	< 0.000355 µM (active)	< 0.000355 µM (active)	0.000776 µM (active)	0.00262 µM (active)	0.000796 µM (active)	< 0.000355 µM (active)	–	< 0.000355 µM (active)	0.00287 µM (active)	< 0.000355 µM (active)	–	0.00259 µM (active)	0.000385 µM (active)	< 0.000355 µM (active)	0.0254 µM (active)	> 3.55 µM (inactive)	0.00308 µM (active)	0.000659 µM (active)	0.548 µM (active)
OC[C@H]1NC[C@@H](O)[C@@H](O)[C@H]1O	–	–	–	> 100 µM (inactive)	> 100 µM (inactive)	–	> 100 µM (inactive)	> 100 µM (inactive)	> 100 µM (inactive)	> 100 µM (inactive)	> 100 µM (inactive)	> 10 µM (inactive)	> 100 µM (inactive)	> 100 µM (inactive)	> 100 µM (inactive)	> 100 µM (inactive)	> 100 µM (inactive)	–	–	> 100 µM (inactive)
OC(c1ccc(Cl)cc1)(c1ccc(Cl)cc1)c1cncnc1	–	–	–	14.3 µM (inactive)	> 10 µM (inactive)	–	23.2 µM (inactive)	16.7 µM (inactive)	14.8 µM (inactive)	33.7 µM (inactive)	27.2 µM (inactive)	18.7 µM (inactive)	22.5 µM (inactive)	21.1 µM (inactive)	14.8 µM (inactive)	16 µM (inactive)	20.7 µM (inactive)	–	–	> 10 µM (inactive)
